Assay [1] concerns the target T1, Tyrosine-protein kinase Mer (Homo sapiens) (UniProt Q12866).
T1 sequence (whole entry): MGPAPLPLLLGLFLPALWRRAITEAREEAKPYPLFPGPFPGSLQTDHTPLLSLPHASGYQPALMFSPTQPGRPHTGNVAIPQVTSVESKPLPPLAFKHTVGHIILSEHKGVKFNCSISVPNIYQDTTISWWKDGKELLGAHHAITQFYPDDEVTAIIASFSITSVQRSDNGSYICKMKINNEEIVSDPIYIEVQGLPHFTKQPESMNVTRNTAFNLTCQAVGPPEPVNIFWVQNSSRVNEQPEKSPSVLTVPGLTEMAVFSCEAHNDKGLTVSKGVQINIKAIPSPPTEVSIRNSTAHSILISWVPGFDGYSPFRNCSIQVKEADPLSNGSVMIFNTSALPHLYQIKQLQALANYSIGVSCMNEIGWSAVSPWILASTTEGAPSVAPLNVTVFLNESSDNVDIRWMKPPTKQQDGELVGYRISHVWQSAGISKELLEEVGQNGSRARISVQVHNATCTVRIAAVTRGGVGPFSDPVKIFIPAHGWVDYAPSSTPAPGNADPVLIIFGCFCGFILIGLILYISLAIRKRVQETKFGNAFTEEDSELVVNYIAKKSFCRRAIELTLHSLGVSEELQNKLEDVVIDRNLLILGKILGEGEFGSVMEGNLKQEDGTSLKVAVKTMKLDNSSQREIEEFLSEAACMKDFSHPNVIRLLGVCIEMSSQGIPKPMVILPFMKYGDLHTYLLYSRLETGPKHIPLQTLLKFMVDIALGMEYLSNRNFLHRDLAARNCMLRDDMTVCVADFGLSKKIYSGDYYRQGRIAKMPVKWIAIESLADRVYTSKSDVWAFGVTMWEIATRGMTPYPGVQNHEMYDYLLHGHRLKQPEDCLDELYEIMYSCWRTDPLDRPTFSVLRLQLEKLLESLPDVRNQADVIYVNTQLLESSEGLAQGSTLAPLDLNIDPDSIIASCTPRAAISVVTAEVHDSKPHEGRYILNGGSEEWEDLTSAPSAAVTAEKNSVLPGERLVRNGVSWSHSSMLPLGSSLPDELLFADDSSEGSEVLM
Particulars: Compound concentration 1000.0 nM.

In assay [2] the target is Non-receptor tyrosine-protein kinase TYK2 (Homo sapiens) (UniProt P29597). Particulars: Compound concentration 1000.0 nM.
Non-receptor tyrosine-protein kinase TYK2 (Homo sapiens), sequence (P29597 whole entry): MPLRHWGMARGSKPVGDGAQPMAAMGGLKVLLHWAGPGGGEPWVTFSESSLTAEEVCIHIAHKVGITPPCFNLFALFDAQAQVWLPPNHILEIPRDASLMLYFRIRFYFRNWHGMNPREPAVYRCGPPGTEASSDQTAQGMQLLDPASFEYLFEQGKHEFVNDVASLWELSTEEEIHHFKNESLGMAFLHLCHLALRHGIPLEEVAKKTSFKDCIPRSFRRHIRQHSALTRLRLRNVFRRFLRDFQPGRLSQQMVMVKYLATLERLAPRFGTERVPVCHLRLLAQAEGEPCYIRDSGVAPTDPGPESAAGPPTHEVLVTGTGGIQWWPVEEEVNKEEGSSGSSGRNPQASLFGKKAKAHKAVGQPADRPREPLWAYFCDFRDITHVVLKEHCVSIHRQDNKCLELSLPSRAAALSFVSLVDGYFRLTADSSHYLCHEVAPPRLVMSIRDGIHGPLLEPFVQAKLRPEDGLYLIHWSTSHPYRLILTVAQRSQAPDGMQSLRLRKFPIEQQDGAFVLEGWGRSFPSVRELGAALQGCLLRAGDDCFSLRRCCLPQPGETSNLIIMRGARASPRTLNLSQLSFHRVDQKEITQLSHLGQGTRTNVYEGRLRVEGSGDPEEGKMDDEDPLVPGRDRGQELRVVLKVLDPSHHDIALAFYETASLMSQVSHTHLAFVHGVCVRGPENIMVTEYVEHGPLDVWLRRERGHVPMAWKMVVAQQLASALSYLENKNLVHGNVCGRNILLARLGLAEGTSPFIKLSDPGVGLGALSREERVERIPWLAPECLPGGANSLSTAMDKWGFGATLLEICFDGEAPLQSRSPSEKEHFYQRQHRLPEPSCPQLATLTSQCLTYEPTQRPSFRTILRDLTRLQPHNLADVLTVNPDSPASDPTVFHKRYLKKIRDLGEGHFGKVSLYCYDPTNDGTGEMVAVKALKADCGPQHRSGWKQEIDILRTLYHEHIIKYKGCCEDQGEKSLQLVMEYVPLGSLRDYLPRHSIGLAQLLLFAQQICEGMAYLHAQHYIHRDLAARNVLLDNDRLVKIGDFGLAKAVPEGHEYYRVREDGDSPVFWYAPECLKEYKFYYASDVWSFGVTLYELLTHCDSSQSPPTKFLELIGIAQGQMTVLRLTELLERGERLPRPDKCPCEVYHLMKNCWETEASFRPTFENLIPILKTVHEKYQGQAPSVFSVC
The target of assay [3] is T2, Tyrosine-protein kinase ITK/TSK (Homo sapiens) (UniProt Q08881).
T2 sequence (whole entry): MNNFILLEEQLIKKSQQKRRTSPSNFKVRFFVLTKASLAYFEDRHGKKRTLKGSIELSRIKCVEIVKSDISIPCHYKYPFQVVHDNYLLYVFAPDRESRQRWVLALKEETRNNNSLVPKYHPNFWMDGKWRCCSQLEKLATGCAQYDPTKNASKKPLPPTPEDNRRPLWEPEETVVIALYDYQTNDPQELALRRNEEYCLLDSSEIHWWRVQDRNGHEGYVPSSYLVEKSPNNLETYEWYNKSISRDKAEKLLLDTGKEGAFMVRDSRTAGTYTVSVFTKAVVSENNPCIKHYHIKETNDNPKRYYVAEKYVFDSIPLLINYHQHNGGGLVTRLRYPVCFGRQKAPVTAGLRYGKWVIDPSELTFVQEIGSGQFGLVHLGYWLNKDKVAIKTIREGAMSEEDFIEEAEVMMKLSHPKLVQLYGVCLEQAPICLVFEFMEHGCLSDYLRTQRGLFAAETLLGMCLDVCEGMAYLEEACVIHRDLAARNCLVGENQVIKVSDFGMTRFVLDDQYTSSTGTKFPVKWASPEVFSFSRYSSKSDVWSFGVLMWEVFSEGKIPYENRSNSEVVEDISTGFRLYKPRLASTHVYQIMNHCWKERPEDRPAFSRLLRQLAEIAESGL
Particulars: Compound concentration 1000.0 nM.

The target in assay [4] is Serine/threonine-protein kinase B-raf (Homo sapiens) (UniProt P15056). Particulars: Compound concentration 1000.0 nM.
Serine/threonine-protein kinase B-raf (Homo sapiens), sequence (P15056 whole entry): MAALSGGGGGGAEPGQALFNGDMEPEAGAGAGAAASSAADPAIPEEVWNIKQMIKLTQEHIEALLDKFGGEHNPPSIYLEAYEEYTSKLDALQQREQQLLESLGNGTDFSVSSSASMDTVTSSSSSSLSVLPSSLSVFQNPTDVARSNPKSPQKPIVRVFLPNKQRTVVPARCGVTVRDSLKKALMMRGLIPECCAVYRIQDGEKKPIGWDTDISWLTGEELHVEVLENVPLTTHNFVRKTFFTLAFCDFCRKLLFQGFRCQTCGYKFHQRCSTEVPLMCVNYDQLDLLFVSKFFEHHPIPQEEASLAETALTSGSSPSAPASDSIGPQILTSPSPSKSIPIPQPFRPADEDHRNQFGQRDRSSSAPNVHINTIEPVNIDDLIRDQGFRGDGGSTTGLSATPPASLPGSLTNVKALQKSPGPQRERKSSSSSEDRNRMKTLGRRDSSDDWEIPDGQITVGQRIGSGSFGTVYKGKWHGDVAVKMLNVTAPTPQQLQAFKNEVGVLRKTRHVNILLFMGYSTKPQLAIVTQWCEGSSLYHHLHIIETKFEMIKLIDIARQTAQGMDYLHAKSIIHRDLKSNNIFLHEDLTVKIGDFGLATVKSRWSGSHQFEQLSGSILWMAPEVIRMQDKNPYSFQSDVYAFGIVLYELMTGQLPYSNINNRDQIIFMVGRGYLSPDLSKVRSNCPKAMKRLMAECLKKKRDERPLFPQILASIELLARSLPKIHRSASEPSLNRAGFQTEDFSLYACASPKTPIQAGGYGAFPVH
Assay [5] addresses Serine/threonine-protein kinase Nek7 (Homo sapiens) (UniProt Q8TDX7). Particulars: Compound concentration 1000.0 nM.
For assay [6], the target named is LIM domain kinase 2 (Homo sapiens) (UniProt P53671). Particulars: Compound concentration 1000.0 nM.
Assay [7] deals with Sodium-dependent noradrenaline transporter (Homo sapiens) (UniProt P23975). Particulars: Compound concentration 10.0 uM.
Sodium-dependent noradrenaline transporter (Homo sapiens), sequence (P23975 whole entry): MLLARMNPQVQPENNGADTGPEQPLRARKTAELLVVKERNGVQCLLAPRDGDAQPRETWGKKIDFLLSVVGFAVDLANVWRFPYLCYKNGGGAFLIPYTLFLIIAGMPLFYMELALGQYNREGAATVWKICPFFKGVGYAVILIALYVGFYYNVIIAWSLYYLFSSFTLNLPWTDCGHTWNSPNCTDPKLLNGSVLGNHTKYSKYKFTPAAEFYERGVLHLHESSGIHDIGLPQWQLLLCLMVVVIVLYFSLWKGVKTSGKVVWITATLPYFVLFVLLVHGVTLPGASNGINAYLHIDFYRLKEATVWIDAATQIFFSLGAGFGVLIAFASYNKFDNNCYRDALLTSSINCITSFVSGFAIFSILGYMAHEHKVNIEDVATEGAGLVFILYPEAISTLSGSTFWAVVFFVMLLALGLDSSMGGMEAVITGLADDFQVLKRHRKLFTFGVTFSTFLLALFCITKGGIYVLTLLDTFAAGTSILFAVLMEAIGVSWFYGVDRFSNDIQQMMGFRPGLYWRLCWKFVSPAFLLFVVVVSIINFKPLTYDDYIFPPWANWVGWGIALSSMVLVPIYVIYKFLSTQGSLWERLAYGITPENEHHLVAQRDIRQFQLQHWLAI
In assay [8] the test system is Hepatocyte growth factor receptor (Homo sapiens), P08581 [M1250T]. Particulars: Compound concentration 1000.0 nM.
Assay [9] concerns the target T3, Dual specificity tyrosine-phosphorylation-regulated kinase 2 (Homo sapiens) (UniProt Q92630).
T3 sequence (whole entry): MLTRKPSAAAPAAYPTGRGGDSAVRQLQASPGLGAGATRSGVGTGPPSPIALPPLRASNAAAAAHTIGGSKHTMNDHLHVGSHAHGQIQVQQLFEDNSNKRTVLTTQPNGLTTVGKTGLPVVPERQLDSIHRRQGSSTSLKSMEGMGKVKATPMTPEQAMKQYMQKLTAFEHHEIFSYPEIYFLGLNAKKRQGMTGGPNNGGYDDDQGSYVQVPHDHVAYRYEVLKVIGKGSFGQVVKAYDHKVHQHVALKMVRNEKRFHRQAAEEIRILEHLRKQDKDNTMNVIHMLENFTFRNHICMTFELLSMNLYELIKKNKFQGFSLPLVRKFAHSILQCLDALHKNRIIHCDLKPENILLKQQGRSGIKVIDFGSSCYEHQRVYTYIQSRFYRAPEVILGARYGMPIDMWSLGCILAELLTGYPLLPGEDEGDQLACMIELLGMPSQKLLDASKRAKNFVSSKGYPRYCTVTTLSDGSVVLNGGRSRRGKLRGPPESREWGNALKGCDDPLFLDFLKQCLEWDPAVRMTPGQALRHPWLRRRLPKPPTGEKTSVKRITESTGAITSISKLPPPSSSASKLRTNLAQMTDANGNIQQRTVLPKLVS
Particulars: Compound concentration 1000.0 nM.

In assay [10] the target is Mitogen-activated protein kinase kinase kinase kinase 4 (Homo sapiens) (UniProt O95819). Particulars: Compound concentration 1000.0 nM.
For assay [11], the target named is Rho-associated protein kinase 2 (Homo sapiens) (UniProt O75116). Particulars: Compound concentration 1000.0 nM.
The target of assay [12] is Mitogen-activated protein kinase kinase kinase 15 (Homo sapiens) (UniProt Q6ZN16). Particulars: Compound concentration 1000.0 nM.
Mitogen-activated protein kinase kinase kinase 15 (Homo sapiens), sequence (Q6ZN16 whole entry): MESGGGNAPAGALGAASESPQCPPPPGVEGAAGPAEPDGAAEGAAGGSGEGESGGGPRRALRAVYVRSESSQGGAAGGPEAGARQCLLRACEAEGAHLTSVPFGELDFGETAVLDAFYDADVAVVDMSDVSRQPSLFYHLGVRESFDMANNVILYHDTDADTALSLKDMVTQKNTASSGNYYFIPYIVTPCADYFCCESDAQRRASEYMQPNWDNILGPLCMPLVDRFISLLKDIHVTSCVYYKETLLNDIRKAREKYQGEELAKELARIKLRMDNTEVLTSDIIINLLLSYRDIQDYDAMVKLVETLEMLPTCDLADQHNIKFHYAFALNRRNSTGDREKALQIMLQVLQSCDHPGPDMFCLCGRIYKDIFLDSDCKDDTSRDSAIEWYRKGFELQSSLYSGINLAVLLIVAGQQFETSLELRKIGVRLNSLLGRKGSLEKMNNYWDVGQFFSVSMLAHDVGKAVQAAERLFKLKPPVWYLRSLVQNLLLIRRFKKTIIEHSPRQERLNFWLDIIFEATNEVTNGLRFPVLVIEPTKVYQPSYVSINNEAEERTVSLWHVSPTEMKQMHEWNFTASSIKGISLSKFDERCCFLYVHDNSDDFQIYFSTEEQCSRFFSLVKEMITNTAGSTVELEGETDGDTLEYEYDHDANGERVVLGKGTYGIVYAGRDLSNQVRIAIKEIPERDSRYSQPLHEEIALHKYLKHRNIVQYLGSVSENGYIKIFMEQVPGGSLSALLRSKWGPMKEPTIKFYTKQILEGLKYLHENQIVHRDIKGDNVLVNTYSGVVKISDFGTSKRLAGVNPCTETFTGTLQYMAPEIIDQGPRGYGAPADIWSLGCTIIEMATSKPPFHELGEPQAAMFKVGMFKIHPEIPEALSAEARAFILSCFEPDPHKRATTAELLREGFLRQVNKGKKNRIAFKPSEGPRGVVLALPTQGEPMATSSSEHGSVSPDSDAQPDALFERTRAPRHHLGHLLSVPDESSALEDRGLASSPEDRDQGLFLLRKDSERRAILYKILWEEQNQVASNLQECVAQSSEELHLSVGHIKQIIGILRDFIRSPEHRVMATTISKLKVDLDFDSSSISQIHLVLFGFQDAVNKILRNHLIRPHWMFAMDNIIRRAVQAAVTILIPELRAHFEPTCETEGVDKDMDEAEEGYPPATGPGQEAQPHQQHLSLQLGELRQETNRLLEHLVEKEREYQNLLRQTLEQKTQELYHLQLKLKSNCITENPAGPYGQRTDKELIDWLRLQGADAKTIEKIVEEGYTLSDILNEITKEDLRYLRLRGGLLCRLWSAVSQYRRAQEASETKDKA
For assay [13], the target named is RAC-alpha serine/threonine-protein kinase (Homo sapiens) (UniProt P31749). Particulars: Compound concentration 1000.0 nM.
RAC-alpha serine/threonine-protein kinase (Homo sapiens), sequence (P31749 whole entry): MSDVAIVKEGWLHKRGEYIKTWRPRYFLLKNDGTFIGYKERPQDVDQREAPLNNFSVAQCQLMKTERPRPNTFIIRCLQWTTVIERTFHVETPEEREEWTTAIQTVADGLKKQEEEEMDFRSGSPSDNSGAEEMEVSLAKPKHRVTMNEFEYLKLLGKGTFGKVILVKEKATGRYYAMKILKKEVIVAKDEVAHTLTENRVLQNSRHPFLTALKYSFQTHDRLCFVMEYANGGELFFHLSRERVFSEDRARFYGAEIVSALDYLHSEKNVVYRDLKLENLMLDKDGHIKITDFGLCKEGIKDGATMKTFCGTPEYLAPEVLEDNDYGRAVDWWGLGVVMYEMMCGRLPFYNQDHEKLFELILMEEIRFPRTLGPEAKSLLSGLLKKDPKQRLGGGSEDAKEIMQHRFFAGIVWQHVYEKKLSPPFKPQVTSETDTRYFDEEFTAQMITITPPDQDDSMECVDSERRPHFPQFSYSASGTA
The target of assay [14] is RAC-beta serine/threonine-protein kinase (Homo sapiens) (UniProt P31751). Particulars: Compound concentration 1000.0 nM.

Serine/threonine-protein kinase Nek7 (Homo sapiens), sequence (Q8TDX7 whole entry, looked up, the tested form may be a part): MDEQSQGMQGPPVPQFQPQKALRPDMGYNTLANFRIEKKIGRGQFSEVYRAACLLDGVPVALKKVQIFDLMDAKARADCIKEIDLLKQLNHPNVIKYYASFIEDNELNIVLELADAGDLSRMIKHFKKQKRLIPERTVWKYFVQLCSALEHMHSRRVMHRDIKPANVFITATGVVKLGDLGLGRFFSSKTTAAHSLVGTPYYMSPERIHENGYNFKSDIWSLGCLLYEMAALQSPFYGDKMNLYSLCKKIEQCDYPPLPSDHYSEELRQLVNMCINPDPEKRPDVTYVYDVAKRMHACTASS

As for `CC1=C(C#N)C(c2ccc3c(c2)c(NC(=O)c2ccccc2C)nn3C)C(C#N)=C(C)N1` [BAY-974], the residual activity in assay [1] is 100%; in [2] it was 88%; in assay [3], 97%; in assay [4], 47%; in assay [5], 96%; in assay [6], 99%. For the same compound, the residual activity in assay [8] is 27%; in assay [9], 100%; in assay [10], 100%; in [11], 93%; in [12] it was 96%; in assay [13], 94%. Moreover, the residual activity in assay [14] is 100%. In addition, in assay [7], the inhibition was 2.85%.
`CCc1ccccc1C(=O)Nc1n[nH]c2c(C)c(F)c(C3C(C#N)=C(C)N(C)C(C)=C3C#N)cc12` [BAY-3827]: the residual activity was 80% in assay [1]; 100% in assay [2]; 86% in assay [3]; 78% in [4]; 83% in assay [5]; 99% in assay [6]. Further, the residual activity in assay [8] is 25%; in assay [9] it was 82%; in [10] it was 100%; in assay [11], 100%; in assay [12], 96%; in assay [13] it was 75%. Also, in [14], the residual activity was 95%. Further, the inhibition in assay [7] was 2.8%.
